Data: patent US11897917B2, “Bioconjugation of polypeptides” (The University of York, priority 2017, dated 2024)
Read-outs that look alike come from different tables or passages of the source.

How the values were obtained:
[1] = target: GFP(Y39ThzK) 2B (Aequorea victoria, UniProt P42212, F64L/H231L/S65T/V163A/Y39K); conditions: for effect on GFP (denaturation / unfolding): initial screen, 100 equivalents
Protocol: Palladium reagent 9 to 12 (stock 550 mM in DMSO, final concentration 33 mM) was added to 2b (stock 330 μM in buffer D1, final concentration 300 μM) in a 0.5 mL Eppendorf tube. The reaction mixture was vortex mixed for 1 s and incubated in a water bath at 37° C. The reaction was quenched by the addition of DTT (ca. 5 mg) and centrifuged (5000×g, 2 min). The supernatant was decanted and desalted using a PD SpinTrap G25 column (GE Healthcare Life Sciences) into H2O for mass spectrometry analysis or further manipulation.
Initially a reaction was set up using 25 μM of 2B (final concentration), 100 μM palladium catalyst (final concentration) in PBS pH 7.4. The reaction mix was then incubated at 37° C. for 1 hour before addition of 1 μl of 1% 3-mercaptopropanoic acid solution for every 10 μl of reaction solution in order to quench excess catalyst. Quenched solution was then incubated at room temperature for 15 minutes and then desalted using a PD SpinTrap G25 column (GE Healthcare Life Sciences) into H2O for mass spectrometry analysis or further manipulation. Efficiency of decaging was determined by ESI-MS.
This reaction process was repeated using protein concentrations of 2B up to 300 μM and catalyst concentrations.
9-12 were trialled at 37° C. at pH 7.4 in order to maintain biocompatibility over a range of concentrations and time intervals (Table 1).

[2] = tested on: glyoxyl-LYRAG 16A; assay: screening of organocatalysts and aldehyde donors for OPAL reaction
Protocol: Initially a panel of secondary amines was screened to investigate their ability to catalyse the ligation using a model peptide substrate, glyoxyl-LYRAG 16A and acetaldehyde as an aldehyde donor 32. Second order rate constants for each catalyst (33-38) at 1, 10, and 25 mM loadings were obtained. Next the nature of the α-carbon substituent of the aldehyde donor was investigated by performing reactions using aldehyde donors bearing an aryl substituent (e.g. phenyl acetylaldehyde). Reactions were as shown in Scheme 7 below.
Encouraged by the biological compatibility and site selectivity in these preliminary ligations, attention next turned to optimizing the OPAL by focusing on the choice of organocatalyst and aldehyde donor species. Initially a panel of secondary amines (33-38) were screened to investigate their ability to catalyse the ligation using a model peptide substrate α-oxo-aldehyde-LYRAG 16A and acetaldehyde 32, and second order rate constants were obtained for each catalyst at 1, 10, and 25 mM loadings (Table 4).

[3] = tested on: α-phenyl-β-hydroxy aldehyde-LYRAG 50; assay: screening of aniline catalysts for oxime ligation of aldol-LYRAG; conditions: 100 mM catalyst, 37° C., 18 hours
Protocol: […] The solution as then charged with an aniline catalyst 56-59 (1M, 50 μl, DMSO). The reaction was vortexed, and allowed to sit at 37° C. for 18 hours without further agitation. Conversion to the product 52 was confirmed by LC-MS analysis.

[4] = tested on: α-phenyl-β-hydroxy aldehyde-LYRAG 50; assay: screening of aniline catalysts and buffer for retro-aldol decomposition of aldol-LYRAG
Protocol: The solution was then charged with an aniline catalyst (1M in 50 μl DMSO) selected from compounds 56, 57, 58 and 59 as shown in Scheme 10 below. The reaction was vortexed, and allowed to sit at 37° C. for 18 hours without further agitation. Conversion to the product 16A/16B was confirmed by LC-MS analysis.
[…] The solution was then charged with p-anisidine catalyst 57 (1M, 50 μl, DMSO). The reaction was vortexed, and allowed to sit at 37° C. for 18 hours without further agitation (Scheme 11). Conversion to the product 16A/16B was confirmed by LC-MS analysis.

[5] = organocatalyst loading 1 mM, Donor R group = CH3
[6] = organocatalyst loading 10 mM, Donor R group = CH3
[7] = organocatalyst loading 25 mM, Donor R group = CH3
[8] = pH 7.5, 50 to 16A, PB 200 mM, 37° C., 18 hours
[9] = organocatalyst loading 1 mM, Donor R group = Phenyl-alanine
[10] = organocatalyst loading 10 mM, Donor R group = Phenyl-alanine
[11] = organocatalyst loading 25 mM, Donor R group = Phenyl-alanine
[12] = 100 equiv. [Pd], 6 h, 37° C., pH 7.4

## O=C(/C=C/c1ccccc1)/C=C/c1ccccc1.O=C(/C=C/c1ccccc1)/C=C/c1ccccc1.O=C(/C=C/c1ccccc1)/C=C/c1ccccc1.[Pd].[Pd] [compound 12, Tris(dibenzylideneacetone)dipalladium(0)]
[1]; 1 equiv. [Pd], 1 h
  GFP fluorescence: Yes
[1]; 100 equiv. [Pd], 6 h
  GFP fluorescence: Yes
[1]; 100 equiv. [Pd], 24 h
  % conversion (decaging): 80%
  GFP fluorescence: Yes
[1]; 100 equiv. [Pd], 40 h
  % conversion (decaging): 100%
  GFP fluorescence: Yes
[1]; 100 equiv. [Pd], 68 h
  % conversion (decaging): 90%
  GFP fluorescence: Yes
[1]; 200 equiv. [Pd], 6 h
  % conversion (decaging): 40%
  GFP fluorescence: Yes
[1]; ESI-MS, after 24 h
  Conversion of 2B to 13A/B: > 95%
[1]; after condition optimisation
  time to completion of decaging: ≤ 24 h
[1]; initial conditions
  time to complete decaging: 48 h
[1]; 37° C., pH 7.4
  effect on GFP (denaturation / unfolding): did not lead to GFP unfolding

## Pyrrolidine [compound 34]
[2]; [5]
  Second Order Rate Constant: 0.0005 M⁻¹ s⁻¹
[2]; [6]
  Second Order Rate Constant: 0.0037 M⁻¹ s⁻¹
[2]; [7]
  Second Order Rate Constant: 0.0058 M⁻¹ s⁻¹

## COc1ccc(N)cc1 [compound 57, p-anisidine]
[3]; pH 4.5
  Conjugation Yield (oxime): 81%
[3]; pH 7.5
  Conjugation Yield (oxime): 92%
[4]; PB, pH 7.5, conc. 10 (Mm)
  Retro-aldol conversion: 0%
[4]; PB, pH 7.5, conc. 50 (Mm)
  Retro-aldol conversion: 13%
[4]; PB, pH 7.5, conc. 100 (Mm)
  Retro-aldol conversion: 50%
[4]; [8]
  Retro-aldol conversion: 52%

## COc1ccc(N)c(C(=O)O)c1 [compound 58, 5-methoxy anthranilic acid]
[3]; pH 4.5
  Conjugation Yield (oxime): 34%
[3]; pH 7.5
  Conjugation Yield (oxime): 97%
[4]; [8]
  Retro-aldol conversion: 8%

## CC(=O)[O-].CC(=O)[O-].[Pd+2] [compound 9, Palladium(II) acetate]
[1]; 100 equiv. [Pd], 6 h
  GFP fluorescence: Yes
[1]; 100 equiv. [Pd], 24 h
  GFP fluorescence: Yes
[1]; 37° C., pH 7.4
  effect on GFP (denaturation / unfolding): immediate denaturation and eventual precipitation

## C1CCNCC1 [compound 35, Piperidine]
[2]; [5]
  Second Order Rate Constant: >0.0001 M⁻¹ s⁻¹
[2]; [6]
  Second Order Rate Constant: 0.0009 M⁻¹ s⁻¹
[2]; [7]
  Second Order Rate Constant: 0.0016 M⁻¹ s⁻¹

## C1CNCCOC1 [compound 37, Homomorpholine]
[2]; [5]
  Second Order Rate Constant: 0.0022 M⁻¹ s⁻¹
[2]; [6]
  Second Order Rate Constant: 0.0166 M⁻¹ s⁻¹
[2]; [7]
  Second Order Rate Constant: 0.0252 M⁻¹ s⁻¹

## O=C(O)[C@@H]1CCCN1 [compound 33, L-proline]
[2]; [5]
  Second Order Rate Constant: 0.00009 M⁻¹ s⁻¹
[2]; [9]
  Second Order Rate Constant: 1.684 M⁻¹ s⁻¹
[2]; [6]
  Second Order Rate Constant: 0.0033 M⁻¹ s⁻¹
[2]; [10]
  Second Order Rate Constant: 4.366 M⁻¹ s⁻¹
[2]; [7]
  Second Order Rate Constant: 0.0100 M⁻¹ s⁻¹
[2]; [11]
  Second Order Rate Constant: 7.899 M⁻¹ s⁻¹

## O=C(O)[C@@H]1CCN1 [compound 36, L-Azetidine 2 carboxylic acid]
[2]; [5]
  Second Order Rate Constant: 0.0004 M⁻¹ s⁻¹
[2]; [6]
  Second Order Rate Constant: 0.0024 M⁻¹ s⁻¹
[2]; [7]
  Second Order Rate Constant: 0.0052 M⁻¹ s⁻¹

## Nc1ccccc1 [compound 56, aniline]
[3]; pH 4.5
  Conjugation Yield (oxime): 61%
[3]; pH 7.5
  Conjugation Yield (oxime): 95%
[4]; [8]
  Retro-aldol conversion: 25%

## C=C[CH2-].C=C[CH2-].[Cl][Pd+].[Cl][Pd+] [compound 11, Allylpalladium(II) chloride dimer]
[1]
  concentration at which reagent denatures GFP: greater than 0.5 mM
[1]; 1 equiv. [Pd], 1 h
  GFP fluorescence: Yes
[1]; 100 equiv. [Pd], 6 h
  GFP fluorescence: No
[1]; [12]
  % conversion (decaging): 30%
[1]; 100 equiv. [Pd], 24 h
  GFP fluorescence: No
[1]; 37° C., pH 7.4
  effect on GFP (denaturation / unfolding): immediate denaturation and eventual precipitation

## CN(C)c1ccc(P(C(C)(C)C)C(C)(C)C)cc1.CN(C)c1ccc(P(C(C)(C)C)C(C)(C)C)cc1.[Cl-].[Cl-].[Pd+2] [compound 10, dichlorobis[di-tert-butyl(4-dimethylaminophenyl)phosphine]palladium(II)]
[1]; 100 equiv. [Pd], 6 h
  GFP fluorescence: No
[1]; [12]
  % conversion (decaging): 0%
[1]; 100 equiv. [Pd], 24 h
  % conversion (decaging): 0%
  GFP fluorescence: No

## C1CN[C@H](c2nnn[nH]2)C1 [compound 38, (S)-(−)-5-(2-Pyrrolidinyl)-1H-tetrazole]
[2]; [5]
  Second Order Rate Constant: 0.0092 M⁻¹ s⁻¹
[2]; [9]
  Second Order Rate Constant: 3.792 M⁻¹ s⁻¹
[2]; [6]
  Second Order Rate Constant: 0.0551 M⁻¹ s⁻¹
[2]; [10]
  Second Order Rate Constant: 11.820 M⁻¹ s⁻¹
[2]; [7]
  Second Order Rate Constant: 0.0997 M⁻¹ s⁻¹
[2]; [11]
  Second Order Rate Constant: 23.947 M⁻¹ s⁻¹

## Nc1cc([N+](=O)[O-])ccc1O [compound 59, 2-Amino-4-nitrophenol]
[3]; pH 4.5
  Conjugation Yield (oxime): precipitates
[3]; pH 7.5
  Conjugation Yield (oxime): 97%
[4]; [8]
  Retro-aldol conversion: 0%

## O=CCc1ccccc1 [phenyl acetylaldehyde]
[2]; with L-proline 33 and tetrazole 38
  increase in rate over aldehyde donors bearing alkyl substituents: ≥ 240 fold
